Results reported in the NIST ThermoML archive (doi:10.1021/je900598y).

Key:
[1] = 298.15 K; 101.33 kPa; Liquid
[2] = excess molar enthalpy (molar enthalpy of mixing); xn = mol fraction of the nth substance listed; details: 298.15 K, Liquid, Calvet calorimetry

CCCCCC(=O)OC(=O)CCCCC [caproic anhydride]
Details | mass density [kg/m3]
[1] | 923.96

CCCCCC(=O)OC(=O)CCCCC [caproic anhydride] + CCCCCCCCCCCC
[2]
Details | excess molar enthalpy [kcal/mol]
x1 = 0.0213 | 0.0366
x1 = 0.0417 | 0.0668
x1 = 0.0612 | 0.0922
x1 = 0.08 | 0.114
x1 = 0.098 | 0.133
x1 = 0.1154 | 0.15
x1 = 0.1349 | 0.166
x1 = 0.1536 | 0.181
x1 = 0.1714 | 0.194
x1 = 0.1886 | 0.204
x1 = 0.205 | 0.214
x1 = 0.2208 | 0.222
x1 = 0.2374 | 0.23
x1 = 0.2533 | 0.236
x1 = 0.2625 | 0.244
x1 = 0.2688 | 0.247
x1 = 0.2754 | 0.249
x1 = 0.2824 | 0.252
x1 = 0.2897 | 0.254
x1 = 0.2974 | 0.257
x1 = 0.3056 | 0.26
x1 = 0.3134 | 0.262
x1 = 0.3215 | 0.264
x1 = 0.3301 | 0.266
x1 = 0.3392 | 0.268
x1 = 0.3471 | 0.27
x1 = 0.3555 | 0.272
x1 = 0.3642 | 0.273
x1 = 0.3733 | 0.275
x1 = 0.383 | 0.276
x1 = 0.3931 | 0.278
x1 = 0.4023 | 0.279
x1 = 0.412 | 0.279
x1 = 0.4222 | 0.28
x1 = 0.4329 | 0.28
x1 = 0.4442 | 0.281
x1 = 0.456 | 0.281
x1 = 0.4672 | 0.281
x1 = 0.4789 | 0.28
x1 = 0.4913 | 0.279
x1 = 0.5043 | 0.278
x1 = 0.5162 | 0.276
x1 = 0.5286 | 0.275
x1 = 0.5417 | 0.272
x1 = 0.5554 | 0.27
x1 = 0.5698 | 0.267
x1 = 0.585 | 0.263
x1 = 0.5987 | 0.259
x1 = 0.613 | 0.255
x1 = 0.628 | 0.251
x1 = 0.6438 | 0.245
x1 = 0.6604 | 0.239
x1 = 0.6778 | 0.232
x1 = 0.6941 | 0.224
x1 = 0.7112 | 0.217
x1 = 0.7291 | 0.208
x1 = 0.748 | 0.198
x1 = 0.7678 | 0.187
x1 = 0.7854 | 0.176
x1 = 0.8039 | 0.166
x1 = 0.8233 | 0.151
x1 = 0.8436 | 0.137
x1 = 0.8649 | 0.121
x1 = 0.8874 | 0.103
x1 = 0.9079 | 0.086
x1 = 0.9293 | 0.0676
x1 = 0.9517 | 0.0472
x1 = 0.9753 | 0.0247

CCCCCC(=O)OC(=O)CCCCC [caproic anhydride] + CCCCCCCCCCCCCC
[2]
Details | excess molar enthalpy [kcal/mol]
x1 = 0.0274 | 0.0479
x1 = 0.0533 | 0.0863
x1 = 0.0779 | 0.118
x1 = 0.1012 | 0.144
x1 = 0.1234 | 0.166
x1 = 0.1445 | 0.185
x1 = 0.1681 | 0.203
x1 = 0.1904 | 0.219
x1 = 0.2115 | 0.232
x1 = 0.2316 | 0.247
x1 = 0.2372 | 0.25
x1 = 0.2431 | 0.253
x1 = 0.2493 | 0.256
x1 = 0.2559 | 0.259
x1 = 0.2628 | 0.263
x1 = 0.2691 | 0.266
x1 = 0.2757 | 0.269
x1 = 0.2826 | 0.272
x1 = 0.2899 | 0.275
x1 = 0.2975 | 0.278
x1 = 0.3056 | 0.281
x1 = 0.3129 | 0.284
x1 = 0.3204 | 0.286
x1 = 0.3284 | 0.289
x1 = 0.3368 | 0.291
x1 = 0.3456 | 0.294
x1 = 0.3548 | 0.296
x1 = 0.363 | 0.298
x1 = 0.3715 | 0.3
x1 = 0.3805 | 0.301
x1 = 0.3899 | 0.303
x1 = 0.3998 | 0.305
x1 = 0.4012 | 0.306
x1 = 0.4103 | 0.307
x1 = 0.4199 | 0.308
x1 = 0.4299 | 0.309
x1 = 0.4404 | 0.31
x1 = 0.4514 | 0.31
x1 = 0.463 | 0.31
x1 = 0.4734 | 0.31
x1 = 0.4843 | 0.31
x1 = 0.4958 | 0.309
x1 = 0.5077 | 0.308
x1 = 0.5203 | 0.307
x1 = 0.5335 | 0.305
x1 = 0.5453 | 0.303
x1 = 0.5575 | 0.3
x1 = 0.5703 | 0.297
x1 = 0.5838 | 0.294
x1 = 0.5979 | 0.29
x1 = 0.6126 | 0.286
x1 = 0.6261 | 0.281
x1 = 0.6401 | 0.277
x1 = 0.6548 | 0.271
x1 = 0.6702 | 0.265
x1 = 0.6863 | 0.258
x1 = 0.7032 | 0.249
x1 = 0.7185 | 0.242
x1 = 0.7345 | 0.232
x1 = 0.7512 | 0.223
x1 = 0.7686 | 0.212
x1 = 0.7869 | 0.2
x1 = 0.8038 | 0.188
x1 = 0.8214 | 0.175
x1 = 0.8397 | 0.16
x1 = 0.8589 | 0.145
x1 = 0.879 | 0.127
x1 = 0.9001 | 0.108
x1 = 0.9185 | 0.0894
x1 = 0.9376 | 0.07
x1 = 0.9575 | 0.0488
x1 = 0.9783 | 0.0255

CCCCCC(=O)OC(=O)CCCCC [caproic anhydride] + CCCCCCCCCCCCCCCC
[2]
Details | excess molar enthalpy [kcal/mol]
x1 = 0.0307 | 0.0555
x1 = 0.0596 | 0.0993
x1 = 0.0868 | 0.135
x1 = 0.1125 | 0.163
x1 = 0.1368 | 0.189
x1 = 0.1597 | 0.209
x1 = 0.1815 | 0.227
x1 = 0.2022 | 0.242
x1 = 0.2219 | 0.255
x1 = 0.2406 | 0.266
x1 = 0.2627 | 0.278
x1 = 0.282 | 0.289
x1 = 0.2889 | 0.293
x1 = 0.2962 | 0.296
x1 = 0.3038 | 0.3
x1 = 0.3118 | 0.303
x1 = 0.3202 | 0.307
x1 = 0.3291 | 0.31
x1 = 0.3373 | 0.313
x1 = 0.346 | 0.316
x1 = 0.355 | 0.318
x1 = 0.3646 | 0.321
x1 = 0.3747 | 0.324
x1 = 0.3853 | 0.326
x1 = 0.3954 | 0.329
x1 = 0.4059 | 0.331
x1 = 0.417 | 0.333
x1 = 0.4262 | 0.333
x1 = 0.4357 | 0.334
x1 = 0.4457 | 0.335
x1 = 0.4562 | 0.336
x1 = 0.4671 | 0.336
x1 = 0.4787 | 0.336
x1 = 0.4907 | 0.336
x1 = 0.5034 | 0.335
x1 = 0.5144 | 0.334
x1 = 0.5258 | 0.333
x1 = 0.5377 | 0.331
x1 = 0.5502 | 0.33
x1 = 0.5633 | 0.328
x1 = 0.5771 | 0.325
x1 = 0.5893 | 0.322
x1 = 0.602 | 0.318
x1 = 0.6153 | 0.314
x1 = 0.6292 | 0.31
x1 = 0.6437 | 0.304
x1 = 0.6589 | 0.299
x1 = 0.6721 | 0.293
x1 = 0.6857 | 0.286
x1 = 0.6999 | 0.279
x1 = 0.7147 | 0.271
x1 = 0.7287 | 0.262
x1 = 0.7433 | 0.254
x1 = 0.7584 | 0.244
x1 = 0.7742 | 0.233
x1 = 0.7907 | 0.221
x1 = 0.8078 | 0.208
x1 = 0.8233 | 0.196
x1 = 0.8393 | 0.181
x1 = 0.856 | 0.166
x1 = 0.8733 | 0.15
x1 = 0.8914 | 0.132
x1 = 0.9102 | 0.112
x1 = 0.9269 | 0.0931
x1 = 0.9411 | 0.0725
x1 = 0.962 | 0.0493
x1 = 0.9807 | 0.0265
